Key:
[1] = tested on: primary polyclonal human Vγ9/Vδ2 T cells; experiment: TNFα release assay (cytokine release assay); type: cell-based; conditions: T-cell, 24 h, read-out: in vitro EC50
Method: Cells (primary polyclonal human Vγ9/Vδ2 T cells which had been expanded in vitro and stored frozen at day 12-15 of expansion) are thawed and rinsed them twice and centrifuged. Upon elimination of supernatant and resuspension of cells, cells are incubated for 24h at 37° C. in the presence of IL2 100 UI/ml (fmal concentration). Cells are washed and centrifuged, following which the supernatant is eliminated and the cells are resuspended and adjusted to the adequate final concentration. Cells are added to the wells of a 96-well plate.
To one row of wells are added a standard diluation series of 3-(bromomethyl)-3-butanol-1-yl-diphosphate (BrHPP). Compounds to be tested, in this case CHDMAPP and HDMAPP are added to experimental wells, after several dilutions.
Full plates are incubated 24 hours at 37° C. for stimulation of the γδ cells with the BrHPP standard as well as isopentenyl pyrophosphate (IPP) for comparison, and test compounds CHDMAPP and HDMAPP. After this time, 100 μl of culture supernatant is taken for TNFα dosage. Measurement of the released TNFa dosageis performed as described by the manufacturer's instruction in the TNFa enzyme immunoassay kit (ref. 11121, Immunotech-Beckman Coulter). OD at 405 nm is read, the OD being proportional to the concentration of released TNFα in the culture supernatant. The data are processed with the Excel software to compare concentration of test compound versus concentration of TNFα and for the calculation of the EC50 for each test compound.

[2] = tested on: Vγ9/Vδ2+ T cell; experiment: in vitro Vγ9/Vδ2+ T cell stimulation; type: cell-based
[3] = tested on: γδ T cells; experiment: in vivo Vγ9/Vδ2+ T cell stimulation in cynomolgus monkeys
[4] = tested on: IFNγ, TNF-alpha, IL2, IL4, IL5 and IL6; type: in vivo, monkeys

| Compound | EC50 [1] | EC50 [2] | EC50 ([3]; Macaca fascicularis, T-cell, in cynomolgus monkeys, dosage studies described in co-pending PCT/IB2003/006375) | activation of γδ T cells ([3]; administration to cynomolgus monkeys, very low doses) | cytokine production (IFNγ) over that observed with the phosphoantigen alone ([4]; cytokines known to be induced by phosphoantigen alone (IFNγ)) | cytokine production over that observed with the Hybrid-I formulation alone ([4]; serum cytokines, 8 monkeys per group, FIG. 3) |
| --- | --- | --- | --- | --- | --- | --- |
| CC(O)(CBr)CCOP(=O)(O)OP(=O)(O)O (stereo not drawn) [BrHPP, 3-(bromomethyl)-3-butanol-1-yl-diphosphate, reference compound] | ~18.6 nM |  |  |  |  |  |
| C/C(=C\COP(=O)(O)OP(=O)(O)O)CO [HDMAPP, (E)-4-Hydroxy-3-methylbut-2-enyl diphosphate] | ~0.758 nM | ~0.6 nM | ~5 pM | strong activation of γδ T cells |  |  |
| C=C(C)CCO[P@@](=O)(O)OP(=O)(O)O [IPP, isopentenyl pyrophosphate, reference compound] | ~31000 nM |  |  |  |  |  |
| C/C(=C\CCP(=O)(O)OP(=O)(O)O)CO [CHDMAPP, (E)-5-hydroxy-4-methylpent-3-enyl pyrophosphonate] | ~0.873 nM |  |  |  | large increase of cytokine production | large and statistically significant increase in cytokine production |
